Entries after “also recorded” stand apart in the source; their conditions may differ.
Key:
[1] = system: rats subjected to hemorrhagic injury (HI); experiment: Survival after hemorrhagic injury without resuscitation; type: in vivo, rat; details: p<0.05 versus HI+Veh; for survival time: FIG. 4
Text: Male Sprague Dawley rats (250-350 g) were obtained from Charles River Laboratory (Wilmington, Mass., USA). […] All animals were housed in Augusta University animal facility during the experiments.
The animals were fasted overnight (water allowed ad libitum) prior to the sham or hemorrhagic injury (HI) procedure. […] Femoral vein was cannulated to administer fluids. Surgical sites were bathed with bupivacaine. Sham animals were not subjected to bleeding or resuscitation. Upon awakening, the animals in HI groups were bled rapidly within the first 10 min to a MAP of 40±5 mmHg. The bleeding was continued for 45 min, maintaining the low MAP, until 60% of circulatory blood volume was withdrawn. The animals were maintained in the state of shock by maintaining MAP at 40±5 for another 45 min. During this time not more than 40% of the shed blood volume in the form of Ringer lactate was given to maintain the blood pressure. Resuscitation was performed with Ringer lactate for one hour on animals in the respective groups. Vehicle (dimethyl sulfoxide [DMSO]; 120 μL/mouse) or drug was administered at 10 min from the onset of resuscitation or immediately after shock period when there was no resuscitation.
Rats were subjected to HI and Veh, RSV or SRT1720 administered (n=5-6). (RSV: 10 mg/Kg body weight; SRT1720: 2 mg/Kg body weight.

[2] = system: rats subjected to hemorrhagic injury (HI); experiment: Cardiac function (dP/dt) after hemorrhagic injury in rat model; type: in vivo; details: RSV treatment vs HI+Veh, n=4-6, p<0.05 vs sham, FIG. 1
Text: (§1) Male Sprague Dawley rats (250-350 g) were obtained from Charles River Laboratory (Wilmington, Mass., USA). The experiments performed in this study including surgical procedures were approved by the Institutional Animal Care and Use Committee (IACUC) at Augusta University. All animals were housed in Augusta University animal facility during the experiments. The animals were fasted overnight (water allowed ad libitum) prior to the sham or hemorrhagic injury (HI) procedure. Hemorrhagic procedure was as described before with some modification (Jian, B. et al., Mol. Med., 18:209-14 (2012). The animals were anesthetized with 2.5% isoflurane (Henry Schein, Dublin, Ohio, USA) and were placed on Plexiglas plate in a supine position. Isoflurane was administered in oxygen using an anesthetic vaporizer. Midline laparotomy (5 cm) was performed in both sham and HI animals to induce soft tissue trauma. Incision was closed aseptically in two layers with sutures. Two femoral arteries and one femoral vein were cannulated (PE-50 tubing), one artery was hooked up to a Blood Pressure Analyzer (Digi-Med; Micro-Med Inc., Louisville, Ky., USA) to monitor mean arterial pressure (MAP) and bleeding was performed through the other artery. Femoral vein was cannulated to administer fluids. Surgical sites were bathed with bupivacaine. Sham animals were not subjected to bleeding or resuscitation. […]

[3] = system: rats subjected to hemorrhagic injury (HI); experiment: 10-day survival study after hemorrhagic injury with resuscitation; type: in vivo, rat
Text: Male Sprague Dawley rats (250-350 g) were obtained from Charles River Laboratory (Wilmington, Mass., USA). The experiments performed in this study including surgical procedures were approved by the Institutional Animal Care and Use Committee (IACUC) at Augusta University. All animals were housed in Augusta University animal facility during the experiments.
as §1, with “The” for “Male Sprague Dawley rats (250-350 g) were obtained from Charles River Laboratory (Wilmington, Mass., USA). The experiments performed in this study including surgical procedures were approved by the Institutional Animal Care and Use Committee (IACUC) at Augusta University. All animals were housed in Augusta University animal facility during the experiments. The”

Q: `O=C(O)c1cccnc1` [niacin, nicotinic acid] was tested. Which survival ([1]; niacin 1, 5, 10 mg/kg, without resuscitation, all curves, FIG. 6) did it give?
A: Its survival is “prolonged survival”.

Q: `O=C(Nc1ccccc1-c1cn2c(CN3CCNCC3)csc2n1)c1cnc2ccccc2n1` [SRT1720] was tested. Which survival time ([1]; SRT1720 2 mg/Kg body weight, without resuscitation) did it give?
A: Its survival time is “Prolong Life”.

Q: Which survival time ([1]; RSV 10 mg/Kg body weight, absence of resuscitation) does the source give for `Oc1ccc(/C=C/c2cc(O)cc(O)c2)cc1` [resveratrol, 3,5,4-tribydroxystilbene] here?
A: Its survival time is “survived for a significantly longer period of time”.

Q: And the “+dp/dt and −dp/dt” value [2]?
A: Its value is “restored”.

Q: What about the mean weight gain ([3]; 10-day survival study, RSV 10 mg/kg, data not shown) of the same compound?
A: The mean weight gain was “significantly improved”.

Q: What about the mortality ([3]; 10-day survival, RSV 10 mg/kg body weight along with resuscitation fluid, p<0.05, FIG. 3) of the same compound?
A: The mortality was “reduce mortality significantly; also recorded: significantly reduced”.
